The text below walks through data of patent US5236928A, “Imidazole derivatives bearing acidic functional groups at the 5-position, their compositions and methods of use as angiotensin II antagonists” (Merck & Co., Inc., priority 1992, dated 1993).

The test deals with BALB 3T3/H-ras. Kind of test: BALB 3T3/H-ras inhibition activity. The test is classed as cell-based.

Turning to `CC(C)C(C)CC[C@@H](C)C1CCN=C2C3=C(CC[C@@]21C)[C@@]1(C)CC[C@H](O)CC1CC3` (stereo partly shown) [UCA1064-B], the “BALB 3T3/H-ras Inhibition Activity IC50” value is 3.5 µg/mL.
